Measurements: US9850225B2, “Compounds useful as immunomodulators” (BRISTOL-MYERS SQUIBB COMPANY, priority 2014, dated 2017)
Where two headings read alike, the source gives them in different places.

Target: PD-1/PD-L1 interaction (PD-1-Ig / PD-L1-His) (Homo sapiens (Human), UniProt Q9NZQ7)
Assay: PD-1/PD-L1 Homogenous Time-Resolved Fluorescence (HTRF) binding assay
Details: read-out: Range or IC50
Source text: The ability of the compounds of formula (I) to bind to PD-L1 was investigated using a PD-1/PD-L1 Homogenous Time-Resolved Fluorescence (HTRF) binding assay.
Homogenous Time-Resolved Fluorescence (HTRF) Binding Assay.
The interaction of PD-1 and PD-L1 can be assessed using soluble, purified preparations of the extracellular domains of the two proteins. The PD-1 and PD-L1 protein extracellular domains were expressed as fusion proteins with detection tags, for PD-1, the tag was the Fc portion of Immunoglobulin (PD-1-Ig) and for PD-L1 it was the 6 histidine motif (PD-L1-His). All binding studies were performed in an HTRF assay buffer consisting of dPBS supplemented with 0.1% […] bovine serum albumin and 0.05% (v/v) Tween-20. For the h/PD-L1-His binding assay, inhibitors were pre-incubated with PD-L1-His (10 nM final) for 15 m in 4 μl of assay buffer, followed by addition of PD-1-Ig (20 nM final) in 1 μl of assay buffer and further incubation for 15 m. HTRF detection was achieved using europium crypate-labeled anti-Ig (1 nM final) and allophycocyanin (APC) labeled anti-His (20 nM final). Antibodies were diluted in HTRF detection buffer and 5 μl was dispensed on top of the binding reaction. […] Additional binding assays were established between the human proteins PD-1-Ig/PD-L2-His (20 & 5 nM, respectively) and CD80-His/PD-L1-Ig (100 & 10 nM, respectively). […]

[1] = PD-1/PD-L1 HTRF binding assay, value given as range class

Sequence of PD-1/PD-L1 interaction (PD-1-Ig / PD-L1-His) (Q9NZQ7 other isoform, or with tags, fused parts or gaps): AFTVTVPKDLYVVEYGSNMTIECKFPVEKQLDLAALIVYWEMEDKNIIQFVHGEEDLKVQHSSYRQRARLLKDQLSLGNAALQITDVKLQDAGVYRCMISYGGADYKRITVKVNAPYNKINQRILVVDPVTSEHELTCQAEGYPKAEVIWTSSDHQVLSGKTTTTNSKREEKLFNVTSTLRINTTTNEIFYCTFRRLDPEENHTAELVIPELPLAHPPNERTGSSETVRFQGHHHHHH

| SMILES | IC50 [1] | further results |
| --- | --- | --- |
| CC(=O)NCCNCc1ccc(OCc2cccc(-c3ccccc3)c2C)cc1OCc1nccc2ccccc12 [Example 1118, N-(2-((2-(isoquinolin-1-ylmethoxy)-4-((2-methyl-[1,1′-biphenyl]-3-yl)methoxy)benzyl)amino)ethyl)acetamide] | 100 to 20000 nM | – |
| Cc1c(COc2cc(OCc3cncc(C#N)c3)c(CN3C[C@@H](O)CC[C@H]3C(=O)O)cc2Cl)cccc1-c1ccc2c(c1)OCCO2 [Example 2007, (2S,5S)-1-(5-chloro-2-((5-cyanopyridin-3-yl)methoxy)-4-((3-(2,3-dihydrobenzo[b][1,4]dioxin-6-yl)-2-methylbenzyl)oxy)benzyl)-5-hydroxypiperidine-2-carboxylic acid] | 0.6 to 10 nM | – |
| CC(=O)NCCNCc1ccc(OCc2cccc(-c3ccccc3)c2C)cc1OCc1cccc2cccnc12 [Example 1074, N-(2-((4-((2-methyl-[1,1′-biphenyl]-3-yl)methoxy)-2-(quinolin-8-ylmethoxy)benzyl)amino)ethyl)acetamide] | 100 to 20000 nM | – |
| Cc1c(COc2cc(OCc3cccc(C#N)c3)c(CNC3(C(=O)O)COC3)cc2Cl)cccc1-c1ccc2c(c1)OCCO2 [Example 1243, 3-((5-chloro-2-((3-cyanobenzyl)oxy)-4-((3-(2,3-dihydrobenzo[b][1,4]dioxin-6-yl)-2-methylbenzyl)oxy)benzyl)amino)oxetane-3-carboxylic acid] | 10 to 100 nM | – |
| Cc1c(COc2cc(OCc3cncc(C#N)c3)c(CN[C@](C)(CO)C(=O)O)cc2F)cccc1-c1ccc2c(c1)OCCO2 [Example 3001] | 0.6 to 10 nM | – |
| Cc1c(COc2cc(OCc3cncc(C#N)c3)c(CN[C@@H](CCN)C(=O)O)cc2Cl)cccc1-c1ccc2c(c1)OCCO2 [Example 2005, (S)-4-amino-2-((5-chloro-2-((5-cyanopyridin-3-yl)methoxy)-4-((3-(2,3-dihydrobenzo[b][1,4]dioxin-6-yl)-2-methylbenzyl)oxy)benzyl)amino)butanoic acid] | 10 to 100 nM | – |
| CC(=O)NCCNCc1ccc(OCc2cccc(-c3ccccc3)c2C)cc1OCc1ccc([N+](=O)[O-])cc1 [Example 1058, N-(2-((4-((2-methyl-[1,1′-biphenyl]-3-yl)methoxy)-2-((4-nitrobenzyl)oxy)benzyl)amino)ethyl)acetamide] | 100 to 20000 nM | – |
| Cc1c(COc2cc(OCc3cccc(C#N)c3)c(CNCC(O)CN3CCCC3=O)cc2Cl)cccc1-c1ccc2c(c1)OCCO2 (centres unmarked) [Example 1225] | 0.6 to 10 nM | – |
| COCCCOc1cc(OCc2cccc(-c3ccccc3)c2C)ccc1CNCCNC(C)=O [Example 1042, N-(2-((2-(3-methoxypropoxy)-4-((2-methyl-[1,1′-biphenyl]-3-yl)methoxy)benzyl)amino)ethyl)acetamide] | 100 to 20000 nM | – |
| Cc1c(COc2cc(OCc3cccc(C#N)c3)c(CNC(CC(F)(F)F)C(=O)O)cc2Cl)cccc1-c1ccc2c(c1)OCCO2 (centres unmarked) [Example 1216, 2-((5-chloro-2-((3-cyanobenzyl)oxy)-4-((3-(2,3-dihydrobenzo[b][1,4]dioxin-6-yl)-2-methylbenzyl)oxy)benzyl)amino)-4,4,4-trifluorobutanoic acid] | 100 to 20000 nM | – |
| Cc1c(COc2ccc(CN[C@H](CO)C(=O)O)c(OCc3cccc(C#N)c3)c2Cl)cccc1-c1ccc2c(c1)OCCO2 [Example 1235, (R)-2-((3-chloro-2-((3-cyanobenzyl)oxy)-4-((3-(2,3-dihydrobenzo[b][1,4]dioxin-6-yl)-2-methylbenzyl)oxy)benzyl)amino)-3-hydroxypropanoic acid] | 100 to 20000 nM | – |
| CC(=O)NCCNCc1ccc(OCc2cccc(-c3ccccc3)c2C)cc1OCc1cccc([N+](=O)[O-])c1 [Example 1076] | – | IC50: 10 to 100 nM |
| Cc1c(COc2cc(OCc3cccc(C#N)c3)c(CNCCO)cc2Cl)cccc1-c1ccc2c(c1)OCCO2 [Example 1170, 3-((4-chloro-5-((3-(2,3-dihydrobenzo[b][1,4]dioxin-6-yl)-2-methylbenzyl)oxy)-2-(((2-hydroxyethyl)amino)methyl)phenoxy)methyl)benzonitrile] | 0.6 to 10 nM | – |
| Cc1c(COc2cc(OCc3cncc(S(C)(=O)=O)c3)c(CN[C@@](C)(CO)C(=O)O)cc2Cl)cccc1-c1ccc2c(c1)OCCO2 [Example 3012, (S)-2-((5-chloro-4-((3-(2,3-dihydrobenzo[b][1,4]dioxin-6-yl)-2-methylbenzyl)oxy)-2-((5-(methylsulfonyl)pyridin-3-yl)methoxy)benzyl)amino)-3-hydroxy-2-methylpropanoic acid] | 0.6 to 10 nM | – |
| C[C@@](CO)(NCc1ccc(OCc2cccc(-c3ccc4c(c3)OCCO4)c2Cl)cc1OCc1cccc(C#N)c1)C(=O)O [Example 1149, (S)-2-(4-(2-chloro-3-(2,3-dihydrobenzo[b][1,4]dioxin-6-yl)benzyloxy)-2-(3-cyanobenzyloxy)benzylamino)-3-hydroxy-2-methylpropanoic acid] | 0.6 to 10 nM | – |
| Cc1c(COc2cc(OCC(N)=O)c(CN[C@@H](CO)C(=O)O)cc2Cl)cccc1-c1ccc2c(c1)OCCO2 [Example 3030, (S)-2-((2-(2-amino-2-oxoethoxy)-5-chloro-4-((3-(2,3-dihydrobenzo[b][1,4]dioxin-6-yl)-2-methylbenzyl)oxy)benzyl)amino)-3-hydroxypropanoic acid] | 0.6 to 10 nM | – |
| CC(=O)NCCNCc1cc(Br)c(OCc2cccc(-c3ccc4c(c3)OCCO4)c2C)cc1OCc1cccc(C#N)c1 [Example 1299, N-(2-((5-bromo-2-((3-cyanobenzyl)oxy)-4-((3-(2,3-dihydrobenzo[b][1,4]dioxin-6-yl)-2-methylbenzyl)oxy)benzyl)amino)ethyl)acetamide] | 0.6 to 10 nM | – |
| Cc1cc(CN2CCCC[C@H]2C(=O)O)c(OCc2cncc(C#N)c2)cc1OCc1cccc(-c2ccc3c(c2)OCCO3)c1C#N [Example 1309, (S)-1-(4-(2-cyano-3-(2,3-dihydrobenzo[b][1,4]dioxin-6-yl)benzyloxy)-2-((5-cyanopyridin-3-yl)methoxy)-5-methylbenzyl)piperidine-2-carboxylic acid] | 0.6 to 10 nM | – |
| CC(=O)Nc1cc(COc2cc(OCc3cccc(-c4ccc5c(c4)OCCO5)c3C)c(Cl)cc2CN[C@@](C)(CO)C(=O)O)ccn1 [Example 3011, (S)-2-((2-((2-acetamidopyridin-4-yl)methoxy)-5-chloro-4-((3-(2,3-dihydrobenzo[b][1,4]dioxin-6-yl)-2-methylbenzyl)oxy)benzyl)amino)-3-hydroxy-2-methylpropanoic acid] | 0.6 to 10 nM | – |
| Cc1c(COc2ccc(CN[C@@](C)(CO)C(=O)O)c(OCc3cccc(C#N)c3)c2Cl)cccc1-c1ccc2c(c1)OCCO2 [Example 1238, (S)-2-((3-chloro-2-((3-cyanobenzyl)oxy)-4-((3-(2,3-dihydrobenzo[b][1,4]dioxin-6-yl)-2-methylbenzyl)oxy)benzyl)amino)-3-hydroxy-2-methylpropanoic acid] | 100 to 20000 nM | – |
| Cc1cc(CN[C@@](C)(CO)C(=O)O)c(OCc2ccc(F)c(C#N)c2)cc1OCc1cccc(-c2ccc3c(c2)OCCO3)c1C [Example 1275, (S)-2-((2-((3-cyano-4-fluorobenzyl)oxy)-4-((3-(2,3-dihydrobenzo[b][1,4]dioxin-6-yl)-2-methylbenzyl)oxy)-5-methylbenzyl)amino)-3-hydroxy-2-methylpropanoic acid] | 0.6 to 10 nM | – |
| Cc1c(COc2cc(OCc3cncc(C#N)c3)c(CN3CCCC[C@H]3C(=O)NS(=O)(=O)C3CC3)cc2Cl)cccc1-c1ccc2c(c1)OCCO2 [Example 1259, (S)-1-(5-chloro-2-((5-cyanopyridin-3-yl)methoxy)-4-((3-(2,3-dihydrobenzo[b][1,4]dioxin-6-yl)-2-methylbenzyl)oxy)benzyl)-N-(cyclopropylsulfonyl)piperidine-2-carboxamide] | 0.6 to 10 nM | – |
| CC(=O)NCCNCc1ccc(OCc2cccc(-c3ccccc3)c2C)cc1OCc1cc(C#N)ccc1F [Example 1095, N-(2-((2-((5-cyano-2-fluorobenzyl)oxy)-4-((2-methyl-[1,1′-biphenyl]-3-yl)methoxy)benzyl)amino)ethyl)acetamide] | – | IC50 (PD-1/PD-L1 HTRF binding assay, numeric value): 81.2 nM |
| CC(=O)NCCNCc1ccc(OCc2cccc(-c3ccccc3)c2C)cc1OCc1cccc(C#N)c1 [Example 1028, N-(2-((2-((3-cyanobenzyl)oxy)-4-((2-methyl-[1,1′-biphenyl]-3-yl)methoxy)benzyl)amino)ethyl)acetamide] | 10 to 100 nM | – |
| Cc1c(COc2cc(OCc3cccc(C#N)c3)c(CNC(Cc3ccc(O)cc3)C(=O)O)cc2Cl)cccc1-c1ccc2c(c1)OCCO2 (centres unmarked) [Example 1187, 2-((5-chloro-2-((3-cyanobenzyl)oxy)-4-((3-(2,3-dihydrobenzo[b][1,4]dioxin-6-yl)-2-methylbenzyl)oxy)benzyl)amino)-3-(4-hydroxyphenyl)propanoic acid] | 10 to 100 nM | – |
| COCC(NCc1cc(Cl)c(OCc2cccc(-c3ccc4c(c3)OCCO4)c2C)cc1OCc1cccc(C#N)c1)C(=O)O (centres unmarked) [Example 1184, 2-((5-chloro-2-((3-cyanobenzyl)oxy)-4-((3-(2,3-dihydrobenzo[b][1,4]dioxin-6-yl)-2-methylbenzyl)oxy)benzyl)amino)-3-methoxypropanoic acid] | 0.6 to 10 nM | – |
